Patent US20250319073A1, “COMPOSITIONS AND METHODS FOR THE TREATMENT OF HUNTINGTON’S DISEASE AND HTT PROTEINOPATHIES” (priority 2022, published 2025)

Tests used:
Type in all cases: in vivo, mouse
R6/2 mice [1] = assay: Open field test in R6/2 mice; conditions: 12 weeks of age
Procedure: Study Summary—A total of 46 male R6/2 mice and 15 male wild-type littermate control mice (WT) were used in the study. The mice were genotyped and the R6/2 mice were divided into different treatment groups based on their pre-treatment body weight. The treatment with Compound (Ia) (0.5 or 5 mg/kg; 10 ml/kg, intraperitoneally (i.p.), QD) or Vehicle (10 ml/kg, i.p., QD) was started at 4 weeks of age. Body weights were measured before the treatment onset and continued twice a week until the end of the study. Fine motor kinematic analysis and rotarod test were performed at 10 weeks of age and the open field activity and clasping behavior were measured at 12 weeks of age for all mice. At 8 and 12 weeks of age the glucose uptake was measured by ^18F-FDG PET and the striatal metabolites were measured using MR spectroscopy for 9-10 mice per group. […] The blood samples were used to prepare peripheral blood mononuclear cells (PBMCs) on which the flow cytometry/luminescence analysis was performed for following assays: mitochondrial reactive oxygen species (ROS) (MitoSox), and ATP levels (Cell TiterGlow). […]
Open Field Test—At 12 weeks of age all mice were subjected to open field test. […] Mice were placed in the center of the chamber and their behavior was recorded for 30 min in 5-min bins. […]

R6/2 mice [2] = assay: Rotarod test in R6/2 mice; conditions: 5 mg/kg i.p. QD, 10 weeks of age, p<0.05, One-way ANOVA
Procedure: Study Summary—A total of 46 male R6/2 mice and 15 male wild-type littermate control mice (WT) were used in the study. The mice were genotyped and the R6/2 mice were divided into different treatment groups based on their pre-treatment body weight. The treatment with Compound (Ia) (0.5 or 5 mg/kg; 10 ml/kg, intraperitoneally (i.p.), QD) or Vehicle (10 ml/kg, i.p., QD) was started at 4 weeks of age. Body weights were measured before the treatment onset and continued twice a week until the end of the study. Fine motor kinematic analysis and rotarod test were performed at 10 weeks of age and the open field activity and clasping behavior were measured at 12 weeks of age for all mice. At 8 and 12 weeks of age the glucose uptake was measured by ^18F-FDG PET and the striatal metabolites were measured using MR spectroscopy for 9-10 mice per group. At 13 weeks of age 9-10 mice per group were subjected to tissue sample collection, and the brain and blood samples were collected. The blood samples were used to prepare peripheral blood mononuclear cells (PBMCs) on which the flow cytometry/luminescence analysis was performed for following assays: mitochondrial reactive oxygen species (ROS) (MitoSox), and ATP levels (Cell TiterGlow). […]
Rotarod Test—At 10 weeks of age all mice were subjected to rotarod test. […] The latency to fall from the rod was recorded.

[3] = Body weight of R6/2 mice under chronic treatment
Procedure: Study Summary-A total of 46 male R6/2 mice and 15 male wild-type littermate control mice (WT) were used in the study. The mice were genotyped and the R6/2 mice were divided into different treatment groups based on their pre-treatment body weight. The treatment with Compound (Ia) (0.5 or 5 mg/kg; 10 ml/kg, intraperitoneally (i.p.), QD) or Vehicle (10 ml/kg, i.p., QD) was started at 4 weeks of age. Body weights were measured before the treatment onset and continued twice a week until the end of the study. Fine motor kinematic analysis and rotarod test were performed at 10 weeks of age and the open field activity and clasping behavior were measured at 12 weeks of age for all mice. At 8 and 12 weeks of age the glucose uptake was measured by ^18F-FDG PET and the striatal metabolites were measured using MR spectroscopy for 9-10 mice per group. At 13 weeks of age 9-10 mice per group were subjected to tissue sample collection, and the brain and blood samples were collected. The blood samples were used to prepare peripheral blood mononuclear cells (PBMCs) on which the flow cytometry/luminescence analysis was performed for following assays: mitochondrial reactive oxygen species (ROS) (MitoSox), and ATP levels (Cell TiterGlow). […] Body Weights-Body weights were measured at 4 weeks of age (pre-treatment) and twice a week until the end of the study. […]

For `Cc1cc(O)cc(C)c1C[C@H](NC(=O)[C@H](N)CCCNC(=N)N)C(=O)N[C@@H](CCCCN)c1nc(Cc2ccccc2)no1.Cl.Cl` [Compound (Ia), (R)-2-amino-N—((S)-1-(((S)-5-amino-1-(3-benzyl-1,2,4-oxadiazol-5-yl)pentyl)amino)-3-(4-hydroxy-2,6-dimethylphenyl)-1-oxopropan-2-yl)-5-guanidinopentanamide], the “total distance traveled in the open field compared to vehicle treated R6/2 mice” value (R6/2 mice [1]; 5 mg/kg i.p. QD, p<0.05, One-way ANOVA) was “traveled longer total distance”, the “total rearing frequency in the open field, between R6/2 groups” value (R6/2 mice [1]; 0.5 or 5 mg/kg i.p. QD, p>0.05, One-way ANOVA) was “no significant differences” and the “latency to fall in rotarod compared to vehicle treated R6/2 mice” value (R6/2 mice [2]) was “increased latency”. For the same compound, the “body weight compared to vehicle treated R6/2 mice” value ([3]; 5 mg/kg i.p. QD) was “non-significantly higher level” and the “body weight, treated R6/2 groups vs vehicle treated R6/2 mice” value ([3]; 0.5 or 5 mg/kg i.p. QD from 4 to 13 weeks of age, p>0.05, Mixed-effects model (REML)) was “no significant differences”.
